Measured values taken from patent publication US7494997B2, “Amide derivative” (Nippon Shinyaku Co., Ltd., priority 2002, dated 2009).

How the values were obtained:
E255K mutant BCR-ABL = biological target: T1, E255K mutant BCR-ABL (Homo sapiens, UniProt P00519, E255K); experiment: Self-phosphorylation inhibitory effect on mutant (E255K) BCR-ABL in transfected 293T cells (Western blot, PY99); type: cell-based; conditions: 2 hours
T1 construct: expressed in transfected cells; host or cells: 293T cells (ATCC), Lipofectamine transfection; the other entry of the earlier key: BCR (P11274, Breakpoint cluster region protein)
T1 sequence (P00519 28-1130 E255K limits assumed): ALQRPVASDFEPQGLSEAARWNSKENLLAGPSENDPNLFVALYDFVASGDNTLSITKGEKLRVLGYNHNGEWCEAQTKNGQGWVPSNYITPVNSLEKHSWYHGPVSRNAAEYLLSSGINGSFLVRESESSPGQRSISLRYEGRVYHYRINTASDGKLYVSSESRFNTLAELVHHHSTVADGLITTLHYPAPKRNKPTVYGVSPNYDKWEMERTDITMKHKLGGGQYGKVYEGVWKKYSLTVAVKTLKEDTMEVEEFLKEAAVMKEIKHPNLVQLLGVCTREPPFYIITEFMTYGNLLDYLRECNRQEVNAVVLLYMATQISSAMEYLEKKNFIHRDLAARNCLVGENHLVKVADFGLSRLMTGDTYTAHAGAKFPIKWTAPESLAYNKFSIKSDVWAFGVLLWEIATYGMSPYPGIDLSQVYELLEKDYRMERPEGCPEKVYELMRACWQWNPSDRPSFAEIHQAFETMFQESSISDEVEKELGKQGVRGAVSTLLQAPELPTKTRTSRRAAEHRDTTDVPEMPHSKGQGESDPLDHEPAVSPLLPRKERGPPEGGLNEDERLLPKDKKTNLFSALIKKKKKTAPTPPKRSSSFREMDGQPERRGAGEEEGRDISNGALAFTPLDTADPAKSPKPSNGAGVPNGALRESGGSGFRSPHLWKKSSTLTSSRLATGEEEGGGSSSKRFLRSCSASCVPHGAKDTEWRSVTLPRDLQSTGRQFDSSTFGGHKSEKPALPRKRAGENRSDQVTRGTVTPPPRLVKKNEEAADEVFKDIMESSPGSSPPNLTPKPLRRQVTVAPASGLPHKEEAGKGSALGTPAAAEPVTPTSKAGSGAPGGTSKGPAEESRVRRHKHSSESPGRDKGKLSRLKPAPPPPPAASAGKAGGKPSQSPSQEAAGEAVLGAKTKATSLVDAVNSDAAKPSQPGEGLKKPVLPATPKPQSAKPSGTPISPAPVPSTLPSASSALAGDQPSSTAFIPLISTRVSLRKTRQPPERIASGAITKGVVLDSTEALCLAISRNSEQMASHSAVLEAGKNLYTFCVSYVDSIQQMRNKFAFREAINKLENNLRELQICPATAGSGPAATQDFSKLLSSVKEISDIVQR
Method: The cells were seeded in an amount of 5 ml in a Poly-L-Lysin coated 6 cm dish so as to give 1.2×10^6 cells/well. […] Using a Lipofectamine reagent (manufactured by Invitrogen), 2 μg of E255K mutant bcr-abl gene expression vector was transfected into the cell. […] The dish was incubated in a CO2 incubator for 2 hours. After treatment with trypsin, the cells were collected into a 15 ml centrifuge tube. The tube was centrifuged at 1000 rpm at room temperature for one minute. After removal of the medium, 50 μl of a cell lysis solution was added. The cells were subjected to cytolysis with a mixer. The tube was left to stand at 4° C. for 15 minutes and transferred to 1.5 ml tube. The tube was centrifuged at 12,000 rpm at 4° C. for 15 minutes. The cell lysate was collected into another 1.5 ml tube. The concentration of protein was measured according to BCA method. The samples of cell lysate containing […] of protein was analyzed by SDS-PAGE polyacrylamide. After electrophoresis, the protein was transferred onto a nylon filter (Hybond-P) with wet method at 4° C. overnight. The nylon filter was reacted in 10 ml of PBS/0.1% Tween-20 containing 0.2 μg/ml anti-phosphorylation tyrosin kinase antibody (PY99) (manufactured by Toyobo) at room temperature for one hour. The nylon filter was washed with PBS three times and then reacted 10 ml of PBS/0.1% Tween-20 containing 0.4 μg/ml Anti-mouse IgG AP-conjugated (manufactured by Cell Signaling) at room temperature for one hour. After the nylon filter was washed with PBS four times, self-phosphorylation of p210 BCR-ABL was detected with alkaline phosphatase color developing reagent.
The results are shown as follows: +++: almost perfectly inhibition of phosphorylation; ++: around half of inhibition; +: week inhibition; and −: no inhibition.

K562 cells = experiment: Cell growth inhibitory effect, K562 cells (WST-8, 72 hours); conditions: for IC50: Homo sapiens, K562, 72 h, read-out: K562 cells (IC50 value: μM); for Ratio (U937 cells/K562 cells): ratio of IC50 values U937 cells/K562 cells
U937 cells = experiment: Cell growth inhibitory effect, U937 cells (WST-8, 72 hours); conditions: Homo sapiens, U-937, 72 h, read-out: U937 cells (IC50 value: μM)

Row | Self-phosphorylation inhibitory effect on E255K mutant BCR-ABL (E255K mutant BCR-ABL; 1 μM) | Self-phosphorylation inhibitory effect on E255K mutant BCR-ABL (E255K mutant BCR-ABL; 3 μM) | Self-phosphorylation inhibitory effect on E255K mutant BCR-ABL (E255K mutant BCR-ABL; 10 μM) | melting point | IC50 (K562 cells) | IC50 (U937 cells) | Self-phosphorylation inhibitory effect on E255K mutant BCR-ABL (E255K mutant BCR-ABL; 0.1 μM) | Self-phosphorylation inhibitory effect on E255K mutant BCR-ABL (E255K mutant BCR-ABL; 0.3 μM) | SMILES | Ratio (U937 cells/K562 cells) (K562 cells)
1 | + | ++ | +++ | 199 to 200 °C (dec.) | 0.0023 µM | 3.34 µM |  |  | Cc1ccc(NC(=O)c2ccc(CN3CCN(C)CC3)c(I)c2)cc1Nc1nccc(-c2cccnc2)n1 [Example 2, 3-iodo-4-(4-methylpiperazin-1-ylmethyl)-N-{4-methyl-3-[4-(3-pyridyl)pyrimidin-2-ylamino]phenyl}benzamide] | 1452.2
2 | − | + | +++ | 193 to 194 °C (dec.) | 0.0046 µM | 5.01 µM |  |  | Cc1ccc(NC(=O)c2ccc(CN3CCN(C)CC3)c(Cl)c2)cc1Nc1nccc(-c2cccnc2)n1 [Example 3, 3-chloro-4-(4-methylpiperazin-1-ylmethyl)-N-{4-methyl-3-[4-(3-pyridyl)pyrimidin-2-ylamino]phenyl}benzamide] | 1089.1
3 | − | ++ | +++ | 213 to 214 °C (dec.) | 0.0054 µM | 6.51 µM |  |  | Cc1ccc(NC(=O)c2ccc(CN3CCN(C)CC3)c(Br)c2)cc1Nc1nccc(-c2cnccn2)n1 [Example 7, 3-bromo-4-(4-methylpiperazin-1-ylmethyl)-N-{4-methyl-3-[4-(2-pyrazinyl)pyrimidin-2-ylamino]phenyl}benzamide] | 1205.6
4 | + | ++ | +++ | 194 to 195 °C (dec.) | 0.0017 µM | 1.86 µM |  |  | Cc1ccc(NC(=O)c2ccc(CN3CCN(C)CC3)c(Br)c2)cc1Nc1nccc(-c2cncc(Br)c2)n1 [Example 9, 3-bromo-4-(4-methylpiperazin-1-ylmethyl)-N-{3-[4-(5-bromopyridin-3-yl)pyrimidin-2-ylamino]-4-methylphenyl}benzamide] | 1094.1
5 | ++ | +++ | +++ | 171 to 173 °C (dec.) | 0.0014 µM | 3.27 µM | − | − | Cc1ccc(NC(=O)c2ccc(CN3CCN(C)CC3)c(C(F)(F)F)c2)cc1Nc1nccc(-c2cncc(Br)c2)n1 [Example 10, 4-(4-methylpiperazin-1-ylmethyl)-3-trifluoromethyl-N-{3-[4-(5-bromopyridin-3-yl)pyrimidin-2-ylamino]-4-methylphenyl}benzamide] | 2335.7
6 | ++ | +++ | +++ | 238 to 240 °C (dec.) | 0.0012 µM | 6.2 µM | − | + | Cc1ccc(NC(=O)c2ccc(CN3CCN(C)CC3)c(Br)c2)cc1Nc1nccc(-c2cncnc2)n1 [Example 13, 3-bromo-4-(4-methylpiperazin-1-ylmethyl)-N-{4-methyl-3-[4-(5-pyrimidinyl)pyrimidin-2-ylamino]phenyl}benzamide] | 5166.7
7 |  |  |  | 201 to 214 °C (dec.) | 0.03 µM | 17 µM |  |  | COc1cc(C(=O)Nc2ccc(C)c(Nc3nccc(-c4cccnc4)n3)c2)cc(OC)c1CN1CCN(C)CC1 [Example 25, 3,5-dimethoxy-4-(4-methylpiperazin-1-ylmethyl)-N-{4-methyl-3-[4-(3-pyridyl)pyrimidin-2-ylamino]phenyl}benzamide] | 566.7
8 |  |  |  | 204 to 205 °C | 0.00065 µM | 6.97 µM |  |  | CCCN1CCN(Cc2ccc(C(=O)Nc3ccc(C)c(Nc4nccc(-c5cccnc5)n4)c3)cc2Br)CC1 [Example 28, 3-bromo-4-[4-(n-propyl)piperazin-1-ylmethyl]-N-{4-methyl-3-[4-(3-pyridyl)pyrimidin-2-ylamino]phenyl}benzamide] | 10723.1
9 |  |  |  | 154 to 155 °C | 0.017 µM | > 10 µM |  |  | Cc1ccc(NC(=O)c2ccc(CN(C)C)c(Br)c2)cc1Nc1nccc(-c2cccnc2)n1 [Example 29, 3-bromo-4-(N,N-dimethylaminomethyl)-N-{4-methyl-3-[4-(3-pyridyl)pyrimidin-2-ylamino]phenyl}benzamide] | >588.2
10 |  |  |  | 172 to 173 °C | 0.022 µM | > 10 µM |  |  | CCN(CC)Cc1ccc(C(=O)Nc2ccc(C)c(Nc3nccc(-c4cccnc4)n3)c2)cc1Br [Example 30, 3-bromo-4-(N,N-diethylaminomethyl)-N-{4-methyl-3-[4-(3-pyridyl)pyrimidin-2-ylamino]phenyl}benzamide] | >454.5
11 |  |  |  | 156 to 157 °C | 0.0075 µM | 5.22 µM |  |  | Cc1ccc(NC(=O)c2ccc(CN3CCCN(C)CC3)c(Br)c2)cc1Nc1nccc(-c2cccnc2)n1 [Example 35, 3-bromo-4-(4-methyl-hexahydro-1H-1,4-diazepin-1-ylmethyl)-N-{4-methyl-3-[4-(3-pyridyl)pyrimidin-2-ylamino]phenyl}benzamide] | 696.0
12 |  |  |  | 159 to 161 °C (dec.) | 0.035 µM | > 10 µM |  |  | COC(=O)c1cc(C(=O)Nc2ccc(C)c(Nc3nccc(-c4cccnc4)n3)c2)ccc1CN1CCN(C)CC1 [Example 39, 3-methoxycarbonyl-4-(4-methylpiperazin-1-ylmethyl)-N-{4-methyl-3-[4-(3-pyridyl)pyrimidin-2-ylamino]phenyl}benzamide] | >285.7
13 |  |  |  | 191 to 193 °C (dec.) | 0.0054 µM | 4.2 µM |  |  | Cc1ccc(NC(=O)c2ccc(CN3CCN(C)CC3)c(C#N)c2)cc1Nc1nccc(-c2cccnc2)n1 [Example 40, 3-cyano-4-(4-methylpiperazin-1-ylmethyl)-N-{4-methyl-3-[4-(3-pyridyl)pyrimidin-2-ylamino]phenyl}benzamide] | 777.8
